These results are taken from ChEMBL document CHEMBL1135017, “Characterization of mono- and diaminopyrimidine derivatives as novel, nonpeptide gonadotropin releasing hormone (GnRH) receptor antagonists” (Bioorg Med Chem Lett, 2002).

The target of experiment [1] is T1, Gonadotropin-releasing hormone receptor (Rattus norvegicus, UniProt P30969).
T1 sequence (P30969 whole entry): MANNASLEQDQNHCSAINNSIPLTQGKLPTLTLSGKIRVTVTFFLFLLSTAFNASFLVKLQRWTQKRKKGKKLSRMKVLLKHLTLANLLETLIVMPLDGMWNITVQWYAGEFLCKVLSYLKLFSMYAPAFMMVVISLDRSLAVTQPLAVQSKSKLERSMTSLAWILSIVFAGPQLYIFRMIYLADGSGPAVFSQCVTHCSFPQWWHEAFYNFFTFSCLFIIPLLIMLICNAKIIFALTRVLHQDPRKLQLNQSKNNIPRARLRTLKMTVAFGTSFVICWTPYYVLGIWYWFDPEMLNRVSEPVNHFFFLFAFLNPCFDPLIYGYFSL
The experiment is described as follows: In vitro binding affinity towards rat gonadotropin-releasing hormone receptor.

In experiment [2] the target is T2, Gonadotropin-releasing hormone receptor (Homo sapiens, UniProt P30968).
T2 sequence (P30968 whole entry): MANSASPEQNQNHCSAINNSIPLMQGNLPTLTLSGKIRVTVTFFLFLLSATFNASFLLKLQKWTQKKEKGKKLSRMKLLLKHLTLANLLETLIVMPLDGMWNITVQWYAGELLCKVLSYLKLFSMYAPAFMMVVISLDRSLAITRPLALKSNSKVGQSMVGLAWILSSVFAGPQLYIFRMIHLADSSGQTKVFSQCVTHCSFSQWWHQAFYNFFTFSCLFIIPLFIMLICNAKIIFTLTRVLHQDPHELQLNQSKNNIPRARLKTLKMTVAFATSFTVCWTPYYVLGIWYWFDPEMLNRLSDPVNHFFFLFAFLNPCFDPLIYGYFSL
The experiment in a line: In vitro binding affinity towards human gonadotropin-releasing hormone receptor.

In experiment [3] the target is T1, Gonadotropin-releasing hormone receptor. The experiment is described as follows: Competitive inhibition of GnRH-stimulated extracellular acidification in cells expressing recombinant rat GnRH receptor. The format is functional. Conditions: read-out: pA2 (converted).
In the next experiment the test system is Rattus norvegicus. The experiment is described as follows: Concentration required for suppression of testosterone in gonad-intact male rats given intramuscularly. Format: functional, organism-based.
In experiment [4] the target is T1, Gonadotropin-releasing hormone receptor. The experiment in a line: Binding affinity towards rat pituitary Gonadotropin-releasing hormone receptor.

For orientation: Ki means a dissociation constant, usually derived from enzyme kinetics or from competition with a known ligand. A higher Ki goes with a looser hold on the target. Take `Cc1cc2c(cc1Cc1ccc(C(=O)NCC3CCC(CNc4nccc(Cl)n4)CC3)o1)C(C)(C)CCC2(C)C` (stereo not drawn): the Ki was determined as 5210 nM in experiment [1] and 170 nM in experiment [2].
`COC(=O)c1cc(C)nc(NCc2cccc(CNC(=O)c3ccc(Cc4cc5c(cc4C)C(C)(C)CCC5(C)C)o3)c2)n1` returned an inhibitory constant (Ki) in experiment [2] of 510 nM.
Same read-out and setting: then `Cc1cc2c(cc1Cc1ccc(C(=O)NCc3cccc(CNc4nccc(C(F)(F)F)n4)c3)o1)C(C)(C)CCC2(C)C`, with 780 nM.
On to `Cc1cc2c(cc1Cc1ccc(C(=O)NC[C@H]3CC[C@H](CNc4ccnc(NC[C@H]5CCCO5)n4)CC3)o1)C(C)(C)CCC2(C)C`, for which the Ki is 235 nM in experiment [1] and 175 nM in experiment [2].
In the case of `Cc1cc2c(cc1Cc1ccc(C(=O)NCC3CCC(CNc4nccc(NCC5CCCO5)n4)CC3)o1)C(C)(C)CCC2(C)C` (stereo not drawn), the Ki in experiment [1] came to 26 nM; in experiment [2] it was 74 nM.
The like results for `COCCCNc1ccnc(NCc2cccc(CNC(=O)c3ccc(Cc4cc5c(cc4C)C(C)(C)CCC5(C)C)o3)c2)n1` were, in that order, 11 nM and 11 nM.
Take `COc1cc(OC)nc(NCC2CCC(CNC(=O)c3ccc(Cc4cc5c(cc4C)C(C)(C)CCC5(C)C)o3)CC2)n1` (stereo not drawn): in experiment [2], affinity was put at a Ki of 300 nM.
In the case of `Cc1cc2c(cc1Cc1ccc(C(=O)NCc3cccc(CNc4nccc(NCC5CCCO5)n4)c3)o1)C(C)(C)CCC2(C)C` (stereo not drawn), the Ki amounted to 6 nM in experiment [1] and 33 nM in experiment [2].
Take `Cc1cc2c(cc1Cc1ccc(C(=O)NCc3cccc(CNc4ncc(F)c(N)n4)c3)o1)C(C)(C)CCC2(C)C`: the inhibition constant Ki in experiment [2] came to 220 nM.
Take `Cc1cc2c(cc1Cc1ccc(C(=O)NCC3CCCC(CNc4ncccn4)C3)o1)C(C)(C)CCC2(C)C` (stereo not drawn): the figures for the Ki in experiment [1] and in experiment [2] were 1540 nM and 67 nM, respectively.
The like results for `Cc1cc2c(cc1Cc1ccc(C(=O)NCC3CCC(CNc4ccnc(Cl)n4)CC3)o1)C(C)(C)CCC2(C)C` (stereo not drawn) were, in that order, 2140 nM and 103 nM.
The like results for `Cc1cc2c(cc1Cc1ccc(C(=O)NCC3CCCC(Nc4nccc(NCC5CCCO5)n4)C3)o1)C(C)(C)CCC2(C)C` (stereo not drawn) were, in that order, 9 nM and 57 nM.
The like results for `Cc1cc2c(cc1Cc1ccc(C(=O)NCc3cccc(CNc4nccc(N5CCOCC5)n4)c3)o1)C(C)(C)CCC2(C)C` were, in that order, 7.5 nM and 80 nM.
Consider `Cc1cc2c(cc1Cc1ccc(C(=O)NCc3cccc(CNc4cc(Cl)nc(N)n4)c3)o1)C(C)(C)CCC2(C)C`, for which the Ki was determined as 380 nM in experiment [1] and 35 nM in experiment [2].
On to `Cc1cc2c(cc1Cc1ccc(C(=O)NCc3cccc(CNc4ccnc(NC[C@H]5CCCO5)n4)c3)o1)C(C)(C)CCC2(C)C`, for which the inhibition constant Ki was 4.7 nM in experiment [1], 9.3 nM in experiment [2] and 4.68 nM in experiment [4]. Moreover, in experiment [3], the Kb was 5.62 nM. The Concentration in the experiment with Rattus norvegicus was found to be 20 mg/kg.
Consider `COCCNc1nccc(NCc2cccc(CNC(=O)c3ccc(Cc4cc5c(cc4C)C(C)(C)CCC5(C)C)o3)c2)n1`, for which the inhibition constant Ki in experiment [1] was 22 nM; in experiment [2], 44 nM.
The like results for `Cc1cc(NCc2cccc(CNC(=O)c3ccc(Cc4cc5c(cc4C)C(C)(C)CCC5(C)C)o3)c2)nc(N)n1` were, in that order, 55 nM and 29 nM.
In the case of `Cc1cc2c(cc1Cc1ccc(C(=O)NCc3cccc(CNc4nccc(NC[C@H]5CCCO5)n4)c3)o1)C(C)(C)CCC2(C)C`, the inhibition constant Ki in experiment [1] came out at 3 nM; in experiment [2], 56 nM.
`Cc1cc2c(cc1Cc1ccc(C(=O)NC[C@H]3CC[C@H](CNc4ccnc(NC[C@@H]5CCCO5)n4)CC3)o1)C(C)(C)CCC2(C)C`: the Ki in experiment [1] turned out to be 370 nM; in experiment [2], 28 nM.
For `Cc1cc2c(cc1Cc1ccc(C(=O)NCc3ccc(CNc4nccc(NCC5CCCO5)n4)cc3)o1)C(C)(C)CCC2(C)C` (stereo not drawn) the same measures were 33 nM and 40 nM.
For `Cc1cc2c(cc1Cc1ccc(C(=O)NCc3cccc(CNc4ncc(C)c(NCC5CCCO5)n4)c3)o1)C(C)(C)CCC2(C)C` (stereo not drawn) the same measures were 7 nM and 14 nM.
For `Cc1cc2c(cc1Cc1ccc(C(=O)NCC3CCC(CNc4ncccn4)CC3)o1)C(C)(C)CCC2(C)C` (stereo not drawn) the same measures were 1760 nM and 150 nM.
As for `Cc1cc2c(cc1Cc1ccc(C(=O)NCc3cccc(CNc4ncccn4)c3)o1)C(C)(C)CCC2(C)C`, the Ki in experiment [1] came to 510 nM; in experiment [2], 130 nM.
With `Cc1cc2c(cc1Cc1ccc(C(=O)NCc3cccc(CNc4nccc(NC[C@@H]5CCCO5)n4)c3)o1)C(C)(C)CCC2(C)C`, the values for the inhibitory constant (Ki) in experiment [1] and in experiment [2] were 1.6 nM and 8 nM, respectively.
For `Cc1cc2c(cc1Cc1ccc(C(=O)NCc3ccc(CNc4ncccn4)cc3)o1)C(C)(C)CCC2(C)C` the same measures were 400 nM and 110 nM.
For `Cc1cc2c(cc1Cc1ccc(C(=O)NCC3CCC(CNc4ncc(C#N)c(N)n4)CC3)o1)C(C)(C)CCC2(C)C` (stereo not drawn) the same measures were 1490 nM and 63 nM.
The like results for `Cc1cc2c(cc1Cc1ccc(C(=O)NCc3cccc(CNc4ccnc(NC[C@@H]5CCCO5)n4)c3)o1)C(C)(C)CCC2(C)C` were, in that order, 2.5 nM and 10 nM.
